Measurements published in publication PMC4967898, “Peptides interfering with protein-protein interactions in the ethylene signaling pathway delay tomato fruit ripening” (Scientific Reports, 2016).
Entries after “also recorded” stand apart in the source; their conditions may differ.

Columns and labels:
[1] = system: Arabidopsis EIN2-ETR1; details: proteins from Arabidopsis, cited from earlier work
Excerpt: Studies on the related tomato proteins in this work emphasize that NOP-1 follows the same inhibitory mechanism also in other plants.

[2] = system: living plants; details: cited from earlier work
[3] = NOP-1 stability by LC/MS; type: physicochemical; details: NOP-1 500 µg in 100 µl PBS pH 6.7, 0, 5, 10 and 15 days, room temperature; Supelcosil C18, 215 nm; identity by mass spectrometry
Experimental: Figure S4: Analysis of NOP-1 stability by liquid chromatography (LC).
Lyophilized NOP-1 (500 µg) was dissolved in 100 µl PBS pH 6.7, incubated for 0 days, 5 days, 10 days and 15 days at room temperatures and then applied to a Supelcosil C18 column (4.6x150 mm). The column was washed with 15 ml H2O with 0.1% TFA (buffer A).
Elution was performed with a linear gradient to 100% buffer B (100% acetonitrile with 0.1% TFA) over 30 min at a flow rate of 1 ml min-1. Detection was set to 215 nm. Identity of the peptide was confirmed by mass spectrometry. […]

[4] = system: green, immature tomato fruits; parameters: method as in PMID 25843012; details: cited from earlier work
[5] = molecular target: T1, LeETR1 (Solanum lycopersicum, UniProt Q41342); test: MST NOP-1 binding to LeETR1; parameters: species or system tomato; details: 50 nM LeETR1 labeled with Alexa Fluor 488-Maleimide, NOP-1 3.8 nM to 31 μM, 50 mM Tris-HCl pH 8.0, 300 mM NaCl, 0.015% (w/v) Fos-Choline-16, 80% MST power, 1:1 stoichiometry, mean +/− standard deviation
T1 construct: made in house; host or cells: E. coli
T1 sequence (Q41342 1-754): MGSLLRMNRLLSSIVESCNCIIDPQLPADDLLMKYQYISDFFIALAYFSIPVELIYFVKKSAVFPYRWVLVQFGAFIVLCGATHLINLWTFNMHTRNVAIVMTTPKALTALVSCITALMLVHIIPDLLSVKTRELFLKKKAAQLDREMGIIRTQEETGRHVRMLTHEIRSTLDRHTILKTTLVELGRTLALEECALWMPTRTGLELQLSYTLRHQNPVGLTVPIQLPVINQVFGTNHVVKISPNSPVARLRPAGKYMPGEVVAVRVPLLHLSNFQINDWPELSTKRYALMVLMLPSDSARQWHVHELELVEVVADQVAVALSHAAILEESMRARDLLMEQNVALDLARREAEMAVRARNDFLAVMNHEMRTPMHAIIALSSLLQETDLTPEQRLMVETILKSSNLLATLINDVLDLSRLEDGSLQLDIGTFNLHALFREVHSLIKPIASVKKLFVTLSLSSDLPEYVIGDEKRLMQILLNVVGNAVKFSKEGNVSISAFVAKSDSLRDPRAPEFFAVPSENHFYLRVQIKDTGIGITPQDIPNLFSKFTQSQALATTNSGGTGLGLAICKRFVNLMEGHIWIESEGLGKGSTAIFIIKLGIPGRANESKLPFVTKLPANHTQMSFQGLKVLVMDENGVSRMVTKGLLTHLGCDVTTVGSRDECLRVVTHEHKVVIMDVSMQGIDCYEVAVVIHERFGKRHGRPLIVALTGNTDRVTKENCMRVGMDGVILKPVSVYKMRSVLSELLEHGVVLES
Excerpt: To substantiate the inhibitory role of NOP-1 in LeEIN2-LeETR1 complex formation, NOP-1 binding to LeETR1 was studied by microscale thermophoresis (MST) as described in the Methods section. […] The Kd for the LeETR1-NOP1 interaction compares to the affinities of the EIN2-ETR1 interaction in Arabidopsis[10][11] and tomato (this work) emphasizing that the NOP-1 peptide can efficiently compete for ETR1 binding and disrupt EIN2-ETR1 complex formation.
Analysis of LeETR1-LeEIN2 complex formation, NOP-1 binding to LeETR1 and determination of the respective dissociation constants Kd was performed by MST[33][34][35]. For protein-protein interaction studies LeETR1 was labeled with Alexa Fluor 488 succinimidyl-ester (Life Technologies) in a buffer containing 50 mM potassium phosphate pH 8.0, 300 mM NaCl and 0.015% (w/v) Fos-Choline-16 according to the manufacturer’s protocol. […]
For quantification of NOP-1 binding to tomato receptor protein, recombinant LeETR1 was labeled with Alexa Fluor 488-Maleimide (Life Technologies) in a buffer containing 50 mM potassium phosphate pH 8.0, 300 mM NaCl, 0.015% (w/v) Fos-Choline-16 following the manufacturer’s protocol. […] Protein-peptide mixtures were transferred into glass capillaries and MST was measured with 80% MST power. […] The dissociation constant Kd was calculated according to a model assuming a 1:1 stoichiometry per binding partner.

CC(C)C[C@H](NC(=O)[C@H](CCCNC(=N)N)NC(=O)[C@H](CCCNC(=N)N)NC(=O)[C@H](CCCCN)NC(=O)[C@H](Cc1ccc(O)cc1)NC(=O)[C@H](CCCNC(=N)N)NC(=O)[C@H](CCCCN)NC(=O)[C@@H](N)CC(C)C)C(N)=O [NOP-1, LKRYKRRL-NH2]
effect on EIN2-ETR1 interaction in Arabidopsis [1]: reduced or abolished EIN2-ETR1 interaction; also recorded: able to disrupt interaction of EIN2 and ETR1 | IC50 ([1]; read-out: IC50 for inhibition of EIN2-ETR1 interaction in Arabidopsis): 93 µM | inhibition of ethylene responses in living plants [2]: potent inhibitor of ethylene responses in living plants | stability of the peptide [3]: stable for several days at room temperature under normal conditions | effect on fruit ripening in tomato, previous work [4]: efficiently reduced fruit ripening in tomato | Kd [5]: ~0.15 µM
